Structures can show the parent of a compound that is named as a salt. Where two headings read alike, the source gives them in different places.
Tests used:
[1] = Solid state physical stability (form conversion) of crystalline salts; type: physicochemical; details: No form conversion after 1 week at 40° C./ambient RH, 40° C./75% RH, and 80° C.
[2] = Solid state chemical stability of crystalline salts; type: physicochemical
[3] = Relative thermodynamic stability of crystal forms; type: physicochemical; details: comparison of besylate crystal forms
Text: The benzyloxycarbonyl (Cbz) group of 16 was cleaved to give 1 by a noble transition metal, such as Pd/C, […], Pt/C, catalyzed hydrogenation in an alcoholic solvent such as methanol, ethanol, or the like, or by acidic solvolysis with a hydrogen halide such as HCl, HBr, or HI or an equivalent such as combination of a metal or an ammonium halide and an acid trifluoroacetic acid, methanesulfonic acid, or the like in organic solvent such as acetonitrile, toluene, or acetic acid at a temperature from about 0° C. to about 60° C. If this deprotection of Cbz group was carried out under acidic condition, 1 could be obtained from 14a,b or 15a,b in a one-pot manner. Benzyl halide, which was a side product of deprotection of Cbz group, was easily removed from the reaction mixture by back-extraction with heptane. Free base of 1 was difficult to be extracted from the aqueous layer to organic layer because of its amphipathic physical property. […] Crude free base was purified by crystallization as a benzenesulfonate salt from IPA-IPAc-heptane solvent system. The benzenesulfonate salt has two crystal forms Form I or II. […] The benzenesulfonate salt can be recrystallized from acetonitrile and alcohol such as methanol, ethanol, or isopropanol, if necessary.

[4] = Hygroscopicity of crystalline salts of the compound of Formula Ia; type: physicochemical

Structure (SMILES): C[C@@H](O[C@H]1CC[C@@H]([C@H]2C[C@@](C)(N)C(=O)N2)[C@@H]1c1ccc(F)cc1)c1cc(C(F)(F)F)cc(C(F)(F)F)c1 (as salt: succinate) (hydrate or solvate)
- melting point: 187 °C

Structure (SMILES): C[C@@H](O[C@H]1CC[C@@H]([C@H]2C[C@@](C)(N)C(=O)N2)[C@@H]1c1ccc(F)cc1)c1cc(C(F)(F)F)cc(C(F)(F)F)c1 [Besylate Anhydrous Form II]
- Solid State Physical Stability [1]: Stable^3
- Solid State Chemical Stability [2]: Stable
- Thermodynamic stability relative to other crystal form [3]: more thermodynamically stable than Form 1

Structure (SMILES): C[C@@H](O[C@H]1CC[C@@H]([C@H]2C[C@@](C)(N)C(=O)N2)[C@@H]1c1ccc(F)cc1)c1cc(C(F)(F)F)cc(C(F)(F)F)c1 [Besylate Anhydrous Form I]
- Hygroscopicity (25° C.) [4]: consistently non-hygroscopic
- Solid State Physical Stability [1]: Stable^3
- Solid State Physical Stability ([1]; listed as anhydrous form I): physically and chemically stable
- Solid State Chemical Stability [2]: Stable
- Solid State Chemical Stability ([2]; listed as anhydrous form I): physically and chemically stable
- Thermodynamic stability relative to other crystal form [3]: more thermodynamically stable than form II

Structure (SMILES): C[C@@H](O[C@H]1CC[C@@H]([C@H]2C[C@@](C)(N)C(=O)N2)[C@@H]1c1ccc(F)cc1)c1cc(C(F)(F)F)cc(C(F)(F)F)c1 [Succinate]
- Solid State Physical Stability [1]: Stable

From US20090247770A1, “PROCESS FOR MAKING LACTAM TACHYKININ RECEPTOR ANTAGONISTS” (priority 2006, published 2009)
